Reference: PMC7835349 (Communications Biology, 2021)
“And” between values parts separate entries of the source, which are not always exact repeats. Equal values may be shown once. Read-outs that look alike come from different tables or passages of the source.

Columns and labels:
telemetered dogs = assay: Conscious dog telemetry (QRS amplitude and other cardiovascular parameters, tolerability)
[1] = Plasma pharmacokinetics after IV bolus in C.B-17 SCID mouse; type: in vivo; conditions: for concentration at 0.05 h / concentration at 0.5 h / concentration at 1 h / concentration at 2 h / concentration at 4 h / concentration at 6 h / concentration at 8 h / Concentration AZD4320 in Plasma, individual animals: 5 mg/kg, mouse IV
Procedure: Pharmacokinetic studies were carried out in the female C.B-17 SCID mouse. Either freshly prepared solutions of AZD4320 in 30% hydroxypropyl-β-cyclodextrin or drug-dendrimer conjugates in phosphate buffered saline were injected as a bolus into the tail vein at dosing volume of 5 ml/kg. Blood samples were collected at different time points post dose and analysed as below.
Blood samples were collected from the jugular vein by venepuncture into K2EDTA (as anticoagulant) tubes. Immediately following collection into the K2EDTA tube the samples were mixed gently and kept on crushed ice until centrifugation. Within 30 mins of blood collection, each sample was centrifuged (1500 g for 10 min at 4 °C) to generate plasma which was kept on wet ice at all times in polypropylene tubes. Duplicate 50 μL aliquots were transferred immediately after centrifugation into uniquely labelled polypropylene tubes (‘released’ AZD4320) containing equivalent amount (50 μL) of 0.2 M citric acid solution, inverted 10 times and then stored in a freezer set to maintain a temperature of −80 °C, until analysis.
The concentrations of ‘total’ AZD4320 were determined in plasma by overnight incubation with hydrazine followed by protein precipitation with acetonitrile and subsequent liquid/liquid extraction. Liquid chromatography with mass spectrometric detection (LC-MS/MS, details in Supplementary Table 5) was used to quantitate both ‘released’ and ‘total’ AZD4320.
Sample analyses were performed in batches containing study samples, calibration standards at 10 concentration levels, QC samples at three concentration levels in duplicate and blank samples. The analytical run acceptance criteria for calibration standards and QC samples was that at least 75% of back-calculated concentrations for calibration standards and at least 2/3 of the QC samples (at least 50% at each concentration level) should be within ±20% (±25% at LLOQ) from nominal value.

[2] = dog, 0.85 mg/kg 0.5h infusion, -1.25 h, 0.85 mg/kg
[3] = dog, AZD4320 0.2 mg/kg, 0.5 h infusion
[4] = dog, AZD4320 0.85 mg/kg, 0.5 h infusion
[5] = dog, AZD4320 0.85 mg/kg, 3 h infusion
[6] = dog, AZD4320 1 mg/kg, 0.5 h infusion
[7] = dog, AZD4320 1.75 mg/kg, 0.5 h infusion

SMILES: CN(CCO)CCC(CSc1ccccc1)Nc1ccc(S(=O)(=O)NC(=O)c2ccc(N3CCC(C(O)c4ccccc4-c4ccc(Cl)cc4)CC3)cc2)cc1S(=O)(=O)C(F)(F)F (centres unmarked) [AZD4320]
- ECG PR interval (telemetered dogs; [2]): 110 ms and 96 ms and 89 ms
- ECG QRS duration (telemetered dogs; [2]): 44 ms and 37 ms and 40 ms
- Left ventricular -dP/dt (mmHg/s) (telemetered dogs; [2]): 3200 mmHg/s and 3594 mmHg/s and 2862 mmHg/s
- QRS amplitude (% baseline) (telemetered dogs; [2]): 100 % baseline and 105 % baseline
- Systolic blood pressure (mmHg) (telemetered dogs; [2]): 142 mmHg and 165 mmHg and 139 mmHg
- QRS amplitude (% baseline) (telemetered dogs; dog, 0.85 mg/kg 0.5h infusion, -[…]): 100 % baseline
- tolerability (telemetered dogs; dog, 1 mg/kg AZD4320): not tolerated
- Effects (telemetered dogs; [3]): No effect level
- Tolerated? (telemetered dogs; [3]): Yes
- Effects other than QRS amplitude (telemetered dogs; [4]): ↓SBP, ↑HR, ↓dP/dt-, ↓PR interval, ↓QRS interval, ↓LVEDP
- Tolerated? (telemetered dogs; [4]): Yes
- ↓QRS amplitude (% decrease) (telemetered dogs; [4]): 49%
- Tolerated? (telemetered dogs; [5]): Yes
- ↓QRS amplitude (% decrease) (telemetered dogs; [5]): 32%
- Effects other than QRS amplitude (telemetered dogs; [6]): poorly tolerated
- Tolerated? (telemetered dogs; [6]): No
- ↓QRS amplitude (% decrease) (telemetered dogs; [6]): 75%
- Effects other than QRS amplitude (telemetered dogs; [7]): ↓SBP, ↑HR, ↓dP/dt-, ↓PR interval, ↓QRS interval, ↓LVEDP
- Tolerated? (telemetered dogs; [7]): No
- ↓QRS amplitude (% decrease) (telemetered dogs; [7]): 94%
- cardiovascular changes (telemetered dogs; preclinical development, Supplementary Fig. 1a, b): dose-dependent decreases in QRS amplitude, QRS duration & PR intervals, blood pressure, left ventricular pressure and contractility
- plasma concentration relative to initial concentration ([1]; bolus IV, C.B-17 SCID mice, within 10 min): less than 20%
- concentration at 0.05 h ([1]; female, C.B-17 SCID, mouse, plasma, intravenous, dosed at 5 mg/kg, 0.05 hr, read-out: Concentration AZD4320 in Plasma, Dose Adjusted to 10 mg/kg): 30600 ng/mL
- concentration at 0.5 h ([1]; female, C.B-17 SCID, mouse, plasma, intravenous, dosed at 5 mg/kg, 0.5 hr, read-out: Concentration AZD4320 in Plasma, Dose Adjusted to 10 mg/kg): 1950 ng/mL
- concentration at 1 h ([1]; female, C.B-17 SCID, mouse, plasma, intravenous, dosed at 5 mg/kg, 1 hr, read-out: Concentration AZD4320 in Plasma, Dose Adjusted to 10 mg/kg): 870 ng/mL
- concentration at 2 h ([1]; female, C.B-17 SCID, mouse, plasma, intravenous, dosed at 5 mg/kg, 2 hr, read-out: Concentration AZD4320 in Plasma, Dose Adjusted to 10 mg/kg): 150 ng/mL
- concentration at 4 h ([1]; female, C.B-17 SCID, mouse, plasma, intravenous, dosed at 5 mg/kg, 4 hr, read-out: Concentration AZD4320 in Plasma, Dose Adjusted to 10 mg/kg): 170 ng/mL
- concentration at 6 h ([1]; female, C.B-17 SCID, mouse, plasma, intravenous, dosed at 5 mg/kg, 6 hr, read-out: Concentration AZD4320 in Plasma, Dose Adjusted to 10 mg/kg): 120 ng/mL
- concentration at 8 h ([1]; female, C.B-17 SCID, mouse, plasma, intravenous, dosed at 5 mg/kg, 8 hr, read-out: Concentration AZD4320 in Plasma, Dose Adjusted to 10 mg/kg): 80 ng/mL
- concentration at 0.05 h ([1]; female, C.B-17 SCID, mouse, plasma, iv, AZD4320 dosed at 5 mg/kg, 0.05 hr, read-out: Concentration AZD4320 in Plasma, Mean): 15300 ng/mL
- concentration at 0.05 h ([1]; female, C.B-17 SCID, mouse, plasma, iv, AZD4320 dosed at 5 mg/kg, 0.05 hr, read-out: Concentration AZD4320 in Plasma, individual animals): 13900 ng/mL
- concentration at 0.5 h ([1]; female, C.B-17 SCID, mouse, plasma, iv, AZD4320 dosed at 5 mg/kg, 0.5 hr, read-out: Concentration AZD4320 in Plasma, Mean): 977 ng/mL
- concentration at 0.5 h ([1]; female, C.B-17 SCID, mouse, plasma, iv, AZD4320 dosed at 5 mg/kg, 0.5 hr, read-out: Concentration AZD4320 in Plasma, individual animals): 1080 ng/mL
- concentration at 1 h ([1]; female, C.B-17 SCID, mouse, plasma, iv, AZD4320 dosed at 5 mg/kg, 1 hr, read-out: Concentration AZD4320 in Plasma, Mean): 436 ng/mL
- concentration at 1 h ([1]; female, C.B-17 SCID, mouse, plasma, iv, AZD4320 dosed at 5 mg/kg, 1 hr, read-out: Concentration AZD4320 in Plasma, individual animals): 579 ng/mL
- concentration at 2 h ([1]; female, C.B-17 SCID, mouse, plasma, iv, AZD4320 dosed at 5 mg/kg, 2 hr, read-out: Concentration AZD4320 in Plasma, Mean): 75.3 ng/mL
- concentration at 2 h ([1]; female, C.B-17 SCID, mouse, plasma, iv, AZD4320 dosed at 5 mg/kg, 2 hr, read-out: Concentration AZD4320 in Plasma, individual animals): 79.7 ng/mL
- concentration at 4 h ([1]; female, C.B-17 SCID, mouse, plasma, iv, AZD4320 dosed at 5 mg/kg, 4 hr, read-out: Concentration AZD4320 in Plasma, Mean): 86.3 ng/mL
- concentration at 6 h ([1]; female, C.B-17 SCID, mouse, plasma, iv, AZD4320 dosed at 5 mg/kg, 6 hr, read-out: Concentration AZD4320 in Plasma, Mean): 60.1 ng/mL
- concentration at 8 h ([1]; female, C.B-17 SCID, mouse, plasma, iv, AZD4320 dosed at 5 mg/kg, 8 hr, read-out: Concentration AZD4320 in Plasma, Mean): 41.3 ng/mL
- clearance ([1]; female, C.B-17 SCID, plasma, mouse, 3-compartment model, conventional IV dose, read-out: Total Plasma Clearance CL (converted)): 0.493 mL/min
- Concentration AZD4320 in Plasma, individual animals ([1]; AZD4320 dosed at 5 mg/kg, 0.05 hr): 16000 ng/mL
- Concentration AZD4320 in Plasma, individual animals ([1]; AZD4320 dosed at 5 mg/kg, 0.5 hr): 1030 ng/mL and 822 ng/mL
- Concentration AZD4320 in Plasma, individual animals ([1]; AZD4320 dosed at 5 mg/kg, 1 hr): 402 ng/mL and 328 ng/mL
- Concentration AZD4320 in Plasma, individual animals ([1]; AZD4320 dosed at 5 mg/kg, 2 hr): 67.8 ng/mL and 78.4 ng/mL
- Concentration AZD4320 in Plasma, individual animals ([1]; AZD4320 dosed at 5 mg/kg, 4 hr): 131 ng/mL and 54.4 ng/mL and 73.6 ng/mL
- Concentration AZD4320 in Plasma, individual animals ([1]; AZD4320 dosed at 5 mg/kg, 6 hr): 92.1 ng/mL and 39.5 ng/mL and 48.8 ng/mL
- Concentration AZD4320 in Plasma, individual animals ([1]; AZD4320 dosed at 5 mg/kg, 8 hr): 52.9 ng/mL and 53.4 ng/mL and 17.6 ng/mL
- Compartmental Micro Constant k12 ([1]; mouse, 3-compartment model): 2.31 h⁻¹
- Compartmental Micro Constant k13 ([1]; mouse, 3-compartment model): 3.92 h⁻¹
- Compartmental Micro Constant k21 ([1]; mouse, 3-compartment model): 0.108 h⁻¹
- Compartmental Micro Constant k31 ([1]; mouse, 3-compartment model): 4.36 h⁻¹
- Central Compartment Volume Vc ([1]; mouse, 3-compartment model, conventional IV dose): 0.0042 L
